Earlier results as cited in US20220211602A1, “INCREASING THE STABILITY OF AGENTS FOR TREATING KERATIN MATERIAL” (Henkel AG & Co. KGaA, priority 2019, published 2022).

Conditions: for solubility in water: 25° C.

Compound | solubility in water (in words) (at 25° C.) | solubility in water
O=C([O-])C1=NN(c2ccc(S(=O)(=O)[O-])cc2)C(=O)C1N=Nc1ccc(S(=O)(=O)[O-])cc1.[Na+].[Na+].[Na+] (stereo not shown) [Acid Yellow 23, trisodium salt of4,5-dihydro-5-oxo-1-(4-sulfophenyl)-4-((4-sulfophenyl)azo)-1H-pyrazole-3-carboxylic acid] | highly soluble | 
O=C([O-])c1c(Cl)c(Cl)c(Cl)c(Cl)c1-c1c2c(Br)cc(=O)c(Br)c-2oc2c(Br)c(O)cc(Br)c12.O=C([O-])c1c(Cl)c(Cl)c(Cl)c(Cl)c1-c1c2c(Br)cc(=O)c(Br)c-2oc2c(Br)c(O)cc(Br)c12.[Na+].[Na+] [Acid Red 92, disodium salt of 3,4,5,6-tetrachloro-2-(1,4,5,8-tetrabromo-6-hydroxy-3-oxoxanthen-9-yl)benzoic acid] |  | greater than 10 g/L
Nc1cc(S(=O)(=O)[O-])cc2cc(S(=O)(=O)[O-])c(N=Nc3ccccc3)c(O)c12.[Na+].[Na+] [Acid Red 33, disodium salt of 5-amino-4-hydroxy-3-(phenylazo)-naphthalene-2,7-disulphonate] |  | 2500 µg/mL
O=S(=O)([O-])c1ccc(N=Nc2c(O)ccc3ccccc23)cc1.[Na+] [Acid Orange 7, sodium salt of 4-[(2-hydroxy-1-naphthyDazo]benzene sulphonate] |  | more than 7 g/L
